In patent US8546381B2, “Bridged heterocyclic compounds and methods of use” (Medivation Technologies, Inc., priority 2008, dated 2013):
Values joined by “and” are separate entries in the source; they are usually repeats but may differ in a detail not shown here. Equal entries are not always repeated.

Columns and labels:
[1] = target: T1, human recombinant serotonin (5-Hydroxytryptamine) 5-HT2A receptor (Homo sapiens, UniProt P28223); assay: Serotonin 5-HT2A radioligand binding ([3H]Ketanserin); conditions: for inhibition at 1 µM: read-out: Serotonin 5-HT2A, inhibition of ligand binding (1 μM)
T1 construct: expressed in transfected cells; host or cells: CHO-K1 cells
Experimental: To evaluate in radioligand binding assays the activity of compounds of the invention, human recombinant serotonin (5-Hydroxytryptamine) 5-HT2A receptor expressed in Chinese hamster ovary (CHO-K1) cells (Bonhaus, D. W. et al. Br. J. Pharmacol. 115:622, 1995; Saucier, C. and Albert, P. R., J. Neurochem. 68:1998, 1997) in a 50 mM Tris-HCl buffer, pH 7.4, was used. Compounds of the invention were incubated with 0.5 nM [^3H]Ketanserin for 60 minutes at 25° C. Non-specific binding was estimated in the presence of 1 μM Mianserin. Receptor proteins were filtered and washed, the filters were then counted to determine [^3H]Ketanserin specifically bound. Compounds were screened at 1 μM or lower, using 1% DMSO as vehicle. Biochemical assay results are presented as the percent inhibition of specific binding in Table 4.

[2] = target: T2, human recombinant adrenergic α2B receptor (Homo sapiens, UniProt P18089); assay: Adrenergic α2B radioligand binding ([3H]Rauwolscine); conditions: for inhibition at 1 µM: read-out: Adrenergic α2B, inhibition of ligand binding (1 μM)
T2 construct: expressed in transfected cells; host or cells: CHO-K1 cells
T2 sequence (P18089 1-450): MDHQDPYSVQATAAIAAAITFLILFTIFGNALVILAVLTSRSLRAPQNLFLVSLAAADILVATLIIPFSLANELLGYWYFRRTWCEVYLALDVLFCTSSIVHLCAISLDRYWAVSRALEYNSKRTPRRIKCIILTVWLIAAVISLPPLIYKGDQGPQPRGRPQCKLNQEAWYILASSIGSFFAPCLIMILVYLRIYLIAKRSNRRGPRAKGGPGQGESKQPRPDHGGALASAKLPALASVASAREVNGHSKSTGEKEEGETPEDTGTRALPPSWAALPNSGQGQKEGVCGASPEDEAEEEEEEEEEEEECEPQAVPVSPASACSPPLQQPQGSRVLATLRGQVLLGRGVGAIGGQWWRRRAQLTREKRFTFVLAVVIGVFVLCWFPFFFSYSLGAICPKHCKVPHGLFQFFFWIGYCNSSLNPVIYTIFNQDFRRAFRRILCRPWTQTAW
Experimental: To evaluate in radioligand binding assays the activity of compounds of the invention, human recombinant adrenergic α2B receptor expressed in Chinese hamster ovary (CHO-K1) cells (Uhlen S et al. Eur J. Pharmacol. 343(1):93, 1998) in a modified Tris-HCl buffer (50 mM Tris-HCl, pH 7.4, 12.5 mM MgCl2, 1 mM EDTA, 0.2% BSA) was used. Compounds of the invention were incubated with 2.5 nM [^3H]Rauwolscine for 60 minutes at 25° C. Non-specific binding was estimated in the presence of 10 μM Prozosin. Receptor proteins were filtered and washed, the filters were then counted to determine [^3H]Rauwolscine specifically bound. Compounds were screened at 1 μM or lower, using 1% DMSO as vehicle. Biochemical assay results are presented as the percent inhibition of specific binding in Table 3.

[3] = target: T3, human recombinant serotonin (5-Hydroxytryptamine) 5-HT2C receptor (Homo sapiens, UniProt P28335); assay: Serotonin 5-HT2C radioligand binding ([3H]Mesulergine); conditions: for inhibition at 1 µM: read-out: Serotonin 5-HT2C, inhibition of ligand binding (1 μM)
T3 construct: expressed in transfected cells; host or cells: CHO-K1 cells
T3 sequence (P28335 33-458): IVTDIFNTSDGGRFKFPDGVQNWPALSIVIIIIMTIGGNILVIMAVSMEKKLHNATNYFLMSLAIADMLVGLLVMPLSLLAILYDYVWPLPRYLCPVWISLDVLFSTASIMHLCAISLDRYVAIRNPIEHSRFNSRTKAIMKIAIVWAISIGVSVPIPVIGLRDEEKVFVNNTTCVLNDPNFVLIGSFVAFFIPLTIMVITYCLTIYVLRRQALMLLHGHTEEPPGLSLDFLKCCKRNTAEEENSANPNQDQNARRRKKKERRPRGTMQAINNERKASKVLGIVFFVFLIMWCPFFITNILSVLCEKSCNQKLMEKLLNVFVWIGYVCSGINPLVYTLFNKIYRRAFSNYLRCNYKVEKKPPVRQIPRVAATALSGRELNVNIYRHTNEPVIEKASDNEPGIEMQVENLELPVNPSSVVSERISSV
Experimental: To evaluate in radioligand binding assays the activity of compounds of the invention, human recombinant serotonin (5-Hydroxytryptamine) 5-HT2C receptor expressed in Chinese hamster ovary (CHO-K1) cells (Wolf, W. A. and Schutz, J. S., J. Neurochem. 69:1449, 1997) in a modified Tris-HCl buffer (50 mM Tris-HCl, pH 7.4, 0.1% Ascorbic Acid, 10 μM Pargyline) was used. Compounds of the invention were incubated with 1 nM [^3H]Mesulergine for 60 minutes at 25° C. Non-specific binding was estimated in the presence of 1 μM Mianserin. Receptor proteins were filtered and washed, the filters were then counted to determine [^3H]Mesulergine specifically bound. Compounds were screened at 1 μM or lower, using 1% DMSO as vehicle. Biochemical assay results are presented as the percent inhibition of specific binding in Table 4.

[4] = target: T4, human recombinant serotonin (5-Hydroxytryptamine) 5-HT6 receptor (Homo sapiens, UniProt P50406); assay: Serotonin 5-HT6 radioligand binding ([3H]LSD); conditions: for inhibition at 1 µM: read-out: Serotonin 5-HT6, inhibition of ligand binding (1 μM)
T4 construct: expressed in transfected cells; host or cells: human HeLa cells
Experimental: To evaluate in radioligand binding assays the activity of compounds of the invention, human recombinant serotonin (5-Hydroxytryptamine) 5-HT6 receptor expressed in human HeLa cells (Monsma, F. J. Jr. et al., Mol. Pharmacol. 43:320, 1993) in a modified Tris-HCl buffer (50 mM Tris-HCl, pH 7.4, 150 mM NaCl, 2 mM Ascorbic Acid, 0.001% BSA) was used. Compounds of the invention were incubated with 1.5 nM [3H]Lysergic acid diethylamide (LSD) for 120 minutes at 37° C. Non-specific binding was estimated in the presence of 5 μM Serotonin (5-HT). Receptor proteins were filtered and washed, the filters were then counted to determine [3H]LSD specifically bound. Compounds were screened at 1 μM or lower, using 1% DMSO as vehicle. Biochemical assay results are presented as the percent inhibition of specific binding in Table 4.

T4 sequence (P50406 whole entry): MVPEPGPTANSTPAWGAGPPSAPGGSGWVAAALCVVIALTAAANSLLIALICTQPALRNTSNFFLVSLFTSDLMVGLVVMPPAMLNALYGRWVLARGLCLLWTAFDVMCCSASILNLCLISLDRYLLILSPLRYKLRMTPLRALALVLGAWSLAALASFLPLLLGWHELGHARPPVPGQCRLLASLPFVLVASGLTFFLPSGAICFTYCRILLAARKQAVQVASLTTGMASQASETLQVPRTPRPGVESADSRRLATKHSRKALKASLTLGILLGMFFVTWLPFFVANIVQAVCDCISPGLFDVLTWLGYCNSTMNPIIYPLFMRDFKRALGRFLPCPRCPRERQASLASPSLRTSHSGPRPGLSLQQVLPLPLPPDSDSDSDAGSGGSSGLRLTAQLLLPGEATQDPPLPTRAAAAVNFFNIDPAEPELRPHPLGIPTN
T1 sequence (P28223 whole entry): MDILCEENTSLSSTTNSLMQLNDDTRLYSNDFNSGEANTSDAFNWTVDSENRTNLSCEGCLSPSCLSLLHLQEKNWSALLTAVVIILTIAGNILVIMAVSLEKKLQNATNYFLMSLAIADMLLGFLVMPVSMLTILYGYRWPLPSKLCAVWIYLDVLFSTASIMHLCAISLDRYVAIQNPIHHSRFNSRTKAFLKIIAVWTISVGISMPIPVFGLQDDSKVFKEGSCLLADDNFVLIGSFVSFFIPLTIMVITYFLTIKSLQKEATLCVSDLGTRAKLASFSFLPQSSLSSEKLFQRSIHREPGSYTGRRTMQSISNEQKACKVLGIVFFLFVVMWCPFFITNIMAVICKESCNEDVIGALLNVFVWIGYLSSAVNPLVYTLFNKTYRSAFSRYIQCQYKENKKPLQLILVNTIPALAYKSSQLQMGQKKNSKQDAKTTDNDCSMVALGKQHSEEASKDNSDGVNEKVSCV

Structure (SMILES) | inhibition at 1 µM [1] [%] | inhibition at 0.01 µM ([2]; 10.0 nM, read-out: Adrenergic α2B, inhibition of ligand binding (10.0 nM)) [%] | inhibition at 0.1 µM ([2]; 0.1 μM, read-out: Adrenergic α2B, inhibition of ligand binding (0.1 μM)) [%] | inhibition at 1 µM ([2]; 1 μM) [%] | inhibition at 1 µM [3] [%] | inhibition at 1 µM [4] [%] | Serotonin 5-HT2A, inhibition of ligand binding (1 μM) ([1]; 1 µM) | Adrenergic α2B, inhibition of ligand binding (1 μM) ([2]; 1 μM) [%] | Serotonin 5-HT2C, inhibition of ligand binding (1 μM) ([3]; 1 µM) [%] | Serotonin 5-HT6, inhibition of ligand binding (1 μM) ([4]; 1 µM) [%]
Cc1ccc2c(c1)c1c(n2CCc2ccccc2)CC2CCC1N2C (centres unmarked) [Compound 2] | 96 | 85 | 108 | 98 | 79 | 82 |  |  |  | 
CN1C2CCC1c1c(n(CCC(=O)N3CCNC(=O)C3)c3ccc(Cl)cc13)C2 (centres unmarked) [Compound 3] | 3 |  |  | -17 | 2 | 3 |  |  |  | 
CN1C2CCC1c1c(n(CCC(=O)N3CCCC3)c3ccc(Cl)cc13)C2 (centres unmarked) [Compound 5] |  |  |  | 30 | -9 | 7 |  |  |  | 
CC(=O)N1CCN(C(=O)CCn2c3c(c4cc(Cl)ccc42)C2CCC(C3)N2C)CC1 (centres unmarked) [Compound 8] | 1 |  |  | -9 | -6 | -1 |  |  |  | 
CN1C2CCC1c1c(n(CCC(=O)N3CCNCC3)c3ccc(Cl)cc13)C2 (centres unmarked) [Compound 9] | 15 |  |  | -15 | 5 | 2 |  |  |  | 
CN1C2CCC1c1c(n(CCC(=O)N3CC[S+]([O-])CC3)c3ccc(Cl)cc13)C2 (centres unmarked) [Compound 10] | -5 |  |  | 7 | 4 | -13 |  |  |  | 
CN1C2CCC1c1c(n(CCC(=O)N3CCS(=O)(=O)CC3)c3ccc(Cl)cc13)C2 (centres unmarked) [Compound 11] | -8 |  |  | 1 | 13 | -16 |  |  |  | 
CN1C2CCC1c1c(n(CCC(=O)N3CCSCC3)c3ccc(Cl)cc13)C2 (centres unmarked) [Compound 12] | 10 |  |  | 10 | 26 | -1 |  |  |  | 
CN1C2CCC1c1c(n(CCC(=O)N3CCOCC3)c3ccc(Cl)cc13)C2 (centres unmarked) [Compound 13] |  |  |  | 7 | 8 | 10 |  |  |  | 
Cc1ccc2c(c1)c1c(n2CCc2ccc(C)nc2)CC2CCC1N2C (centres unmarked) [Compound 32] | 15 |  |  | 82 | -3 | 13 |  |  |  | 
CN1C2CCC1c1c(n(CCc3ccc(Cl)cc3)c3ccc(F)cc13)C2 (centres unmarked) [Compound 33] |  |  |  | 100 | 64 | 14 |  |  |  | 
CN1C2CCC1c1c(n(CCc3ccc(C(F)(F)F)nc3)c3ccc(Cl)cc13)C2 (centres unmarked) [Compound 34] |  |  |  | 103 | 27 | 20 | 36.0/ % and 65.0% | 100.0 | 28.0 | 28.0
CN1C2CCC1c1c(n(CCc3ccc(F)cc3)c3ccc(F)cc13)C2 (centres unmarked) [Compound 35] |  |  |  | 110 | 86 | 70 |  |  |  | 
CN1C2CCC1c1c(n(CCCc3ccc(C(F)(F)F)nc3)c3ccc(Cl)cc13)C2 (centres unmarked) [Compound 37] | 23 |  |  | 51 | 26 | 22 |  |  |  | 
Cc1ccc(CCCn2c3c(c4cc(Cl)ccc42)C2CCC(C3)N2C)cn1 (centres unmarked) [Compound 38] | 13 |  |  | 76 | 23 | 17 |  |  |  | 
CN1C2CCC1c1c(n(CCCc3ccc(Cl)cc3)c3ccc(Cl)cc13)C2 (centres unmarked) [Compound 39] | 87 |  |  | 54 | 94 | 24 |  |  |  | 
Cc1ccc(C(O)Cn2c3c(c4cc(Cl)ccc42)C2CCC(C3)N2C)cn1 (centres unmarked) [Compound 52] | 21 |  |  | 85 | 11 | 16 |  |  |  | 
Cc1ccc2c(c1)c1c(n2CC(C)(O)c2ccc(Cl)cc2)CC2CCC1N2C (centres unmarked) [Compound 54] | 100 |  |  | 94 | 93 | 26 |  |  |  | 
Cc1ccc2c(c1)c1c(n2CCc2ccccc2)CC2CCCC1N2C (centres unmarked) [Compound 56] | 31 |  |  | 100 | 36 | 30 |  |  |  | 
CN1C2CCC1c1c(n(CCc3ccc(F)cc3)c3ccc(Cl)cc13)C2 (centres unmarked) [Compound 57] | 79 |  |  | 98 | 88 | 46 |  |  |  | 
CN1C2CCC1c1c(n(CCc3ccc(Cl)cc3)c3ccc(Cl)cc13)C2 (centres unmarked) [Compound 58] | 79 |  |  | 99 | 84 | 25 |  |  |  | 
CN1C2CCC1c1c(n(CC(=O)N3CCOCC3)c3ccc(Cl)cc13)C2 (centres unmarked) [Compound 59, 2-(2-chloro-11-methyl-5,6,7,8,9,10-Hexahydro-7,10-iminocyclohept[b]indol-5-yl)-1-morpholinoethanone] |  |  |  | 20 | 8 | 0 |  |  |  | 
CN1C2CCC1c1c(n(CC(=O)N3CCCC3)c3ccc(Cl)cc13)C2 (centres unmarked) [Compound 60] |  |  |  | 5 | 15 | 9 |  |  |  | 
Cc1ccc(CCn2c3c(c4cc(Cl)ccc42)C2CCC(C3)N2C)cc1 (centres unmarked) [Compound 61] |  |  |  | 96 | 86 | 41 |  |  |  | 
Cc1ccc2c(c1)c1c(n2CCc2ccc(F)cc2)CC2CCC1N2C (centres unmarked) [Compound 62] |  |  |  | 104 | 87 | 71 |  |  |  | 
CCOC(=O)CCn1c2c(c3cc(Cl)ccc31)C1CCC(C2)N1C (centres unmarked) [Compound 70, ethyl 3-(2-chloro-11-methyl-5,6,7,8,9,10-hexahydro-7,10-iminocyclohept[b]indol-5-yl)propanoate] | 16 |  |  | 51 | 4 | 3 |  |  |  | 
